Measured values from the CheMixHub viscosity set.

Assay: xn = mol fraction of the nth substance listed

CCCCCO + CCCO
101.33 kPa
Details | viscosity [mPa·s]
293.15 K, x2 = 0.1659 | 3.671
293.15 K, x2 = 0.3648 | 3.292
293.15 K, x2 = 0.5097 | 3.015
293.15 K, x2 = 0.6041 | 2.854
293.15 K, x2 = 0.7449 | 2.617
298.15 K, x2 = 0.2007 | 3.137
298.15 K, x2 = 0.381 | 2.856
298.15 K, x2 = 0.4603 | 2.722
298.15 K, x2 = 0.6314 | 2.464
298.15 K, x2 = 0.7745 | 2.261
298.15 K, x2 = 0.8626 | 2.141

CCCCCCCC + CCCCCC
viscosity [mPa·s]
Details | x2 = 0.1072 | x2 = 0.2073 | x2 = 0.2375 | x2 = 0.3034 | x2 = 0.4038 | x2 = 0.5101 | x2 = 0.6111 | x2 = 0.7056 | x2 = 0.805 | x2 = 0.9018
294.65 K, 100 kPa | – | – | 0.432 | – | – | – | – | – | – | –
298.15 K, 101.33 kPa | 0.4782 | 0.4598 | – | 0.4414 | 0.4124 | 0.392 | 0.3697 | 0.351 | 0.3326 | 0.3172

CN(C)C=O + CCO
viscosity [mPa·s], 101 kPa
Details | 293.15 K | 298.15 K | 303.15 K | 313.15 K | 323.15 K
x1 = 0.3863 | – | 0.881 | – | – | –
x1 = 0.5 | – | – | 0.758 | 0.649 | 0.563
x2 = 0.0999 | 0.871 | 0.819 | 0.77 | 0.682 | 0.61
x2 = 0.2 | 0.876 | 0.818 | 0.767 | 0.68 | 0.604
x2 = 0.3 | 0.882 | 0.822 | 0.77 | 0.681 | 0.603
x2 = 0.4 | 0.881 | 0.821 | 0.767 | 0.674 | 0.596
x2 = 0.5001 | 0.872 | 0.813 | 0.759 | 0.668 | 0.592
x2 = 0.6 | 0.886 | 0.825 | 0.769 | 0.67 | 0.59
x2 = 0.7 | 0.919 | 0.852 | 0.791 | 0.685 | 0.598
x2 = 0.8 | 0.97 | 0.897 | 0.828 | 0.712 | 0.616
x2 = 0.9001 | 1.067 | 0.977 | 0.897 | 0.762 | 0.651

ClC(Cl)=C(Cl)Cl + CCCCO
Details | viscosity [mPa·s]
298.15 K, 101.3 kPa, x1 = 0.6759 | 1.045

ClC(Cl)=C(Cl)Cl + C1CCOC1
303.15 K, 101 kPa
Details | viscosity [mPa·s]
x2 = 0.0667 | 0.7821
x2 = 0.1429 | 0.763
x2 = 0.2457 | 0.7362
x2 = 0.3692 | 0.7008
x2 = 0.4384 | 0.6795
x2 = 0.5309 | 0.6487
x2 = 0.6897 | 0.5914
x2 = 0.7605 | 0.5641
x2 = 0.8435 | 0.5312
x2 = 0.9213 | 0.4988

CCCCC(C)=O + CC(=O)CC(C)C
298.15 K, 101 kPa
Details | viscosity [mPa·s]
x2 = 0.1164 | 0.581
x2 = 0.2196 | 0.575
x2 = 0.3357 | 0.571
x2 = 0.4413 | 0.566
x2 = 0.5503 | 0.562
x2 = 0.6632 | 0.558
x2 = 0.7765 | 0.553
x2 = 0.8841 | 0.548

O=[N+]([O-])c1ccccc1 + CN(C)C=O
viscosity [mPa·s]
Details | 298.15 K | 303.15 K | 308.15 K | 313.15 K
101.3 kPa, x1 = 0.0953 | 0.926 | 0.8671 | 0.8133 | 0.7628
101.3 kPa, x1 = 0.1999 | 1.026 | 0.9585 | 0.8949 | 0.8362
101.3 kPa, x1 = 0.3027 | 1.129 | 1.053 | 0.9803 | 0.9134
101.3 kPa, x1 = 0.4044 | 1.231 | 1.146 | 1.075 | 0.9878
101.3 kPa, x1 = 0.504 | 1.338 | 1.246 | 1.154 | 1.07
101.3 kPa, x1 = 0.6035 | 1.441 | 1.332 | 1.232 | 1.14
101.3 kPa, x1 = 0.7034 | 1.543 | 1.423 | 1.313 | 1.214
101.3 kPa, x1 = 0.8011 | 1.638 | 1.505 | 1.389 | 1.28
101.3 kPa, x1 = 0.8937 | 1.74 | 1.595 | 1.469 | 1.351
101.33 kPa, x2 = 0.1017 | – | 1.524 | – | 1.307
101.33 kPa, x2 = 0.2145 | – | 1.416 | – | 1.22
101.33 kPa, x2 = 0.3053 | – | 1.331 | – | –
101.33 kPa, x2 = 0.3083 | – | – | – | 1.157
101.33 kPa, x2 = 0.404 | – | 1.246 | – | 1.091
101.33 kPa, x2 = 0.5021 | – | 1.165 | – | 1.023
101.33 kPa, x2 = 0.6003 | – | 1.085 | – | 0.952
101.33 kPa, x2 = 0.6968 | – | 1.002 | – | 0.884
101.33 kPa, x2 = 0.7975 | – | 0.917 | – | 0.809
101.33 kPa, x2 = 0.8975 | – | 0.826 | – | 0.738

O=[N+]([O-])c1ccccc1 + COC(C)=O
viscosity [mPa·s], 101 kPa
Details | 298.15 K | 308.15 K
x2 = 0.0418 | 1.689 | 1.459
x2 = 0.1491 | 1.449 | 1.261
x2 = 0.2508 | 1.25 | 1.095
x2 = 0.3515 | 1.076 | 0.949
x2 = 0.4403 | 0.941 | 0.834
x2 = 0.4882 | 0.875 | 0.777
x2 = 0.5492 | 0.796 | 0.71
x2 = 0.649 | 0.681 | 0.611
x2 = 0.7499 | 0.58 | 0.523
x2 = 0.8513 | 0.492 | 0.446
x2 = 0.9379 | 0.426 | 0.388

c1ccccc1 + CCCCCCCCCC
Details | viscosity [mPa·s]
298 K, 101 kPa, x1 = 0.5 | 0.6712
298.15 K, 101.33 kPa, x2 = 0.03584 | 0.6003
298.15 K, 101.33 kPa, x2 = 0.1004 | 0.5986
298.15 K, 101.33 kPa, x2 = 0.2013 | 0.6012
298.15 K, 101.33 kPa, x2 = 0.2902 | 0.613
298.15 K, 101.33 kPa, x2 = 0.3988 | 0.6372
298.15 K, 101.33 kPa, x2 = 0.5 | 0.6648
298.15 K, 101.33 kPa, x2 = 0.5943 | 0.6949
298.15 K, 101.33 kPa, x2 = 0.7021 | 0.7313
298.15 K, 101.33 kPa, x2 = 0.8353 | 0.7784
298.15 K, 101.33 kPa, x2 = 0.9165 | 0.8085
318 K, 101 kPa, x1 = 0.5 | 0.5262

ClC(Cl)=C(Cl)Cl + O=[N+]([O-])c1ccccc1
303.15 K, 101 kPa
Details | viscosity [mPa·s]
x1 = 0.1516 | 1.446
x1 = 0.2128 | 1.376
x1 = 0.2966 | 1.288
x1 = 0.3642 | 1.221
x1 = 0.4582 | 1.144
x1 = 0.5496 | 1.074
x1 = 0.6451 | 1.012
x1 = 0.7624 | 0.941
x1 = 0.8428 | 0.896
x1 = 0.9206 | 0.856

C=COCCCC + CCOC(=O)c1ccccc1
viscosity [mPa·s], 101 kPa
Details | x2 = 0.0939 | x2 = 0.1857 | x2 = 0.2804 | x2 = 0.3768 | x2 = 0.4748 | x2 = 0.557 | x2 = 0.6781 | x2 = 0.7812 | x2 = 0.8898
303.15 K | 0.438 | 0.499 | 0.573 | 0.663 | 0.769 | 0.877 | 1.061 | 1.25 | 1.482
308.15 K | 0.425 | 0.482 | 0.55 | 0.633 | 0.729 | 0.827 | 0.995 | 1.163 | 1.372
313.15 K | 0.404 | 0.458 | 0.519 | 0.592 | 0.678 | 0.762 | 0.907 | 1.054 | 1.231

C=CC(C)(O)CCC=C(C)C (configuration not stated) + CCCCCC
298.15 K, 101.33 kPa
Details | viscosity [mPa·s]
x2 = 0.0412 | 3.82
x2 = 0.103 | 3.13
x2 = 0.2546 | 1.952
x2 = 0.3645 | 1.418
x2 = 0.4938 | 0.995
x2 = 0.5828 | 0.792
x2 = 0.6605 | 0.637
x2 = 0.7376 | 0.525
x2 = 0.8069 | 0.445
x2 = 0.8815 | 0.372
x2 = 0.9366 | 0.33
x2 = 0.9766 | 0.306

O=[N+]([O-])c1ccccc1 + OCCOCCO
viscosity [mPa·s], 101 kPa
Details | 298.15 K | 308.15 K
x2 = 0.0441 | 1.987 | 1.691
x2 = 0.1493 | 2.565 | 2.115
x2 = 0.2505 | 3.312 | 2.642
x2 = 0.3502 | 4.303 | 3.31
x2 = 0.4438 | 5.55 | 4.117
x2 = 0.4934 | 6.373 | 4.632
x2 = 0.5487 | 7.457 | 5.293
x2 = 0.6506 | 10.04 | 6.804
x2 = 0.751 | 13.58 | 8.774
x2 = 0.8498 | 18.47 | 11.34
x2 = 0.9429 | 24.89 | 14.54

O=[N+]([O-])c1ccccc1 + c1ccccc1
101 kPa
Details | viscosity [mPa·s]
298.15 K, x2 = 0.2096 | 1.417
298.15 K, x2 = 0.4874 | 1.017
298.15 K, x2 = 0.8636 | 0.681
303.15 K, x1 = 0.0887 | 0.6013
303.15 K, x1 = 0.1796 | 0.654
303.15 K, x1 = 0.2737 | 0.7103
303.15 K, x1 = 0.3694 | 0.7841
303.15 K, x1 = 0.4673 | 0.865
303.15 K, x1 = 0.5682 | 0.9589
303.15 K, x1 = 0.6723 | 1.075
303.15 K, x1 = 0.7788 | 1.218
303.15 K, x1 = 0.8874 | 1.39

CCCCCCCCCCCCCC + C1CCCCC1
298.15 K, 101.33 kPa
Details | viscosity [mPa·s]
x1 = 0.0144 | 0.9238
x2 = 0.1743 | 1.907
x2 = 0.3074 | 1.756
x2 = 0.4253 | 1.621
x2 = 0.5304 | 1.486
x2 = 0.6125 | 1.384
x2 = 0.6841 | 1.291
x2 = 0.7505 | 1.207
x2 = 0.8066 | 1.131
x2 = 0.8651 | 1.064
x2 = 0.9088 | 1.01
x2 = 0.9483 | 0.9646
